From the OligoGym collection
Where “and” joins values, the source holds several entries; their conditions need not be identical. Equal entries are not always repeated. After the bases stand the sugars from the 5' end (letter, count) and the backbone: PS all phosphorothioate, else s phosphorothioate and o phosphodiester by linkage. Methylation of C is not given here. k = constrained ethyl (cEt); d = 2'-deoxy (DNA)

Biological target: MALAT1
Settings: ASO, A431, 0.005 µM

Sequence	target mRNA inhibition
CTATTGTCCCATAACT (sugars k3 d10 k3, PS)	38%
GGAGGTATGACATATA (sugars k3 d10 k3, PS)	68% and 84%
TTGAAGCATACCTTAA (sugars k3 d10 k3, PS)	28%
TACCAACCACTCGCTT (sugars k3 d10 k3, PS)	1%
CACAGCGGTACACTCC (sugars k3 d10 k3, PS)	40%
GATAAAAGCAGCTCCA (sugars k3 d10 k3, PS)	30%
CCACGGCCCGCACGGA (sugars k3 d10 k3, PS)	6%
TCCACTTGATCCCAAC (sugars k3 d10 k3, PS)	47% and 56%
CACTGTCAATTTATAG (sugars k3 d10 k3, PS)	19%
TCCACCCCCACGCCAA (sugars k3 d10 k3, PS)	-9%
CCAAGAACTAGCACCT (sugars k3 d10 k3, PS)	-22%
AGTCAGGGACACACCC (sugars k3 d10 k3, PS)	-16%
TCAACATTTGGCCTAC (sugars k3 d10 k3, PS)	21%
ATTTATAGACCCCTGA (sugars k3 d10 k3, PS)	-8%
TCCAGTCTACAAGTTA (sugars k3 d10 k3, PS)	31%
ATTATCCTGATATTGG (sugars k3 d10 k3, PS)	46%
TAAATACCACCACCTG (sugars k3 d10 k3, PS)	2%
ATATTTTGCCCCCACC (sugars k3 d10 k3, PS)	2%
CCGTTACGAAAGTCCT (sugars k3 d10 k3, PS)	67% and 56%
GCTACCATCAGAAGAA (sugars k3 d10 k3, PS)	22%
GCCTTCCCGTACTTCT (sugars k3 d10 k3, PS)	60% and 53%
GCTACTATATTTAAGG (sugars k3 d10 k3, PS)	29%
GGTGAGGCTGACACTT (sugars k3 d10 k3, PS)	27%

Sequence	target mRNA inhibition
TACTTGCCAACAGAAC (sugars k3 d10 k3, PS)	19%
ACTTATCTGTTAACAG (sugars k3 d10 k3, PS)	25%
GCTCCCCGCCTGAGCC (sugars k3 d10 k3, PS)	8%
CTAATAGCAGCGGGAT (sugars k3 d10 k3, PS)	22%
AGTACGAAACTCCCCC (sugars k3 d10 k3, PS)	28%
TTATCTGTTAACAGCT (sugars k3 d10 k3, PS)	31%
CGACTTGCTCCCAAGA (sugars k3 d10 k3, PS)	22%
AACATATTGCCGACCT (sugars k3 d10 k3, PS)	45%
CACTTGCCAGTTTAAT (sugars k3 d10 k3, PS)	29%
ACCGGAGCAGGAAGAA (sugars k3 d10 k3, PS)	4%
CTGCGGCCCCCCAGTT (sugars k3 d10 k3, PS)	25%
CCAAATTAATGCACTG (sugars k3 d10 k3, PS)	13%
TTAAGACCATCCCAAA (sugars k3 d10 k3, PS)	5%
GTTCAAAGATATTGTG (sugars k3 d10 k3, PS)	0%
CTTCACCAAATCGCAC (sugars k3 d10 k3, PS)	-13%
TTAAACGGGTCATCAA (sugars k3 d10 k3, PS)	0%
CTCCGAAGACACAGAG (sugars k3 d10 k3, PS)	-3%
GCCCCAACACTGAACT (sugars k3 d10 k3, PS)	11%
AGCGGGATCAGAACAG (sugars k3 d10 k3, PS)	43%
CCTACCACTCTAAGAT (sugars k3 d10 k3, PS)	27%
TAGCAGTAACATCTGA (sugars k3 d10 k3, PS)	46%
AGATATTGTGCTGTTA (sugars k3 d10 k3, PS)	17%
AAGCACTTATCCCTAA (sugars k3 d10 k3, PS)	25%

Sequence	target mRNA inhibition
GCCTGCTCGCCTCCTC (sugars k3 d10 k3, PS)	41%
TCTTGAATTACTTCCG (sugars k3 d10 k3, PS)	76% and 55%
GCCTATAAGGACAGCT (sugars k3 d10 k3, PS)	11%
TGCGCTTAAGAGGGCA (sugars k3 d10 k3, PS)	7%
TGGAACTTGAATGCAA (sugars k3 d10 k3, PS)	10%
TTACCTTGAAACCGAT (sugars k3 d10 k3, PS)	31%
CGCTTAAGAGGGCAGG (sugars k3 d10 k3, PS)	12%
CAAGCTGAACTATCAC (sugars k3 d10 k3, PS)	27%
AGATAATGTTCTCATC (sugars k3 d10 k3, PS)	11%
TATGACACTTTCCTTG (sugars k3 d10 k3, PS)	25%
TACAGAAGTCTCGGGC (sugars k3 d10 k3, PS)	28%
CCAACTAAGCGAATGG (sugars k3 d10 k3, PS)	18%
TTATAGACGGAGAACA (sugars k3 d10 k3, PS)	8%
TCCTTAGTTGGCATCA (sugars k3 d10 k3, PS)	76% and 68%
ATTATATGCTCATCAC (sugars k3 d10 k3, PS)	51%
CTTCAGGCGAGCTGAG (sugars k3 d10 k3, PS)	-4%
AGCCAGTCAGGGACAC (sugars k3 d10 k3, PS)	-3%
CTCTAACCCAGTTTGT (sugars k3 d10 k3, PS)	36%
ACGGAAATTTTTCTAC (sugars k3 d10 k3, PS)	4%
GCCAAGCACTCATATG (sugars k3 d10 k3, PS)	24%
CAGCTTCCGCTAAGAT (sugars k3 d10 k3, PS)	-11%
TTTATAGACCCCTGAC (sugars k3 d10 k3, PS)	22%
AATCGCCATGGAAAGC (sugars k3 d10 k3, PS)	-4%

Sequence	target mRNA inhibition
CAGTCCTTTACAGAAG (sugars k3 d10 k3, PS)	12%
GCTTCCTACTTTTCAG (sugars k3 d10 k3, PS)	44%
TGTTAACAATTTGCAG (sugars k3 d10 k3, PS)	20%
TTATTCCCCAATGGAG (sugars k3 d10 k3, PS)	18%
TACAATCAAGTCAAGC (sugars k3 d10 k3, PS)	-2%
ATAGTGTAAAACATTG (sugars k3 d10 k3, PS)	0%
AGCCACTCAAATGCCT (sugars k3 d10 k3, PS)	28%
AGGGACGGTTGAGAAG (sugars k3 d10 k3, PS)	14%
CTCATACACTCACTAG (sugars k3 d10 k3, PS)	0%
TTCTAGCTTCAAGTAT (sugars k3 d10 k3, PS)	25%
AGCACCGCTTGAGATT (sugars k3 d10 k3, PS)	42% and 20%
TGCCTTAAAGTTACAT (sugars k3 d10 k3, PS)	19%
CTAATCACTGTCAATT (sugars k3 d10 k3, PS)	-1%
TTGCCGACCTCACGGA (sugars k3 d10 k3, PS)	30%
TACTTCATTACCCCAA (sugars k3 d10 k3, PS)	34%
CAGGAACAAGTCCTAC (sugars k3 d10 k3, PS)	19%
CCGCACGGAAATTTTT (sugars k3 d10 k3, PS)	15%
CGTTTTTCAGCTTCCA (sugars k3 d10 k3, PS)	7%
ACAAGGCAAATCGCCA (sugars k3 d10 k3, PS)	17%
CATGCAATACTGCAGA (sugars k3 d10 k3, PS)	15%
TGAAGCATACCTTAAC (sugars k3 d10 k3, PS)	31%
TAGTCTGAAGAATACC (sugars k3 d10 k3, PS)	23%
CTGCATCTAGGCCATC (sugars k3 d10 k3, PS)	65% and 52%

Sequence	target mRNA inhibition
CTCCTGACAAATTATA (sugars k3 d10 k3, PS)	17%
TTCATTACCCCAACTA (sugars k3 d10 k3, PS)	42%
CTTACTGGGTCTGGCT (sugars k3 d10 k3, PS)	41%
GATGCTAGCTTGGCCA (sugars k3 d10 k3, PS)	-2%
CGCTCAAATCCTGATC (sugars k3 d10 k3, PS)	23%
CCAAAAGCTCTATACT (sugars k3 d10 k3, PS)	12%
AAATACGACTGCTTAA (sugars k3 d10 k3, PS)	22%
CTTGAATGCAAACTAC (sugars k3 d10 k3, PS)	-6%
TAGAATCTTACTTGAT (sugars k3 d10 k3, PS)	34%
AAATTGCACTCGCTCC (sugars k3 d10 k3, PS)	28%
CTAACAGCACATCATG (sugars k3 d10 k3, PS)	32%
ACTCTAATCACTGTCA (sugars k3 d10 k3, PS)	35%
GCCCCCCACGGCCCGC (sugars k3 d10 k3, PS)	10%
TAGAGCTACTTAGCTG (sugars k3 d10 k3, PS)	18%
AATACTTCATTACCCC (sugars k3 d10 k3, PS)	45%
TGCTCGCCTCCTCCGT (sugars k3 d10 k3, PS)	34%
CCACAAGGATCCAAGC (sugars k3 d10 k3, PS)	-20%
TAAATCATTGGGAGTT (sugars k3 d10 k3, PS)	38%
TCAAGGCACTGATCAC (sugars k3 d10 k3, PS)	49%
GAATCCCCCCCAAGAT (sugars k3 d10 k3, PS)	-15%
CTACCATATCCAAACA (sugars k3 d10 k3, PS)	21%
TTGGTTACCAATAATT (sugars k3 d10 k3, PS)	24%
